From US9540389B2, “Antimicrobial potentiators” (priority 2013, dated 2017)

Legend:
[1] = tested on: Escherichia coli AB1157 ΔacrB; assay: MIC assay (microbroth dilution); format: cell-based
Source text: (§1) • Strains and Reagents. The following strains were obtained from the Keio collection (Baba, et al.: Construction of Escherichia coli K-12 in-frame, single-gene knockout mutants: the Keio collection. In Mol Syst Biol, vol. 2, pp. 2006 0008, (2006)): JW0451 (ΔacrB::kan), JW5503 (ΔtolC::kan), JW3234 (ΔacrF::kan), JW2661 (ΔemrB::kan), JW0863 (ΔmacB::kan). The deletion mutations in each of these strains were transferred to AB1157 using P1 phage transduction (see Table 1). The construction of the E. coli cell-based reporter strain (SOS-XXX) that was used for high throughput screening is described in detail in the supplementary information. […] Irgasan was a generous gift from Ciba Speciality Chemicals, Inc. (High Point, N.C.). Hoechst 33342 (H33342) was purchased from Molecular Probes (Eugene, Oreg.). […] Luria Broth (Miller) and agar were purchased as prepared dehydrated media from Becton Dickenson (Franklin Lakes, N.J.). The compound libraries used in high-throughput screens were purchased from Chembridge (San Diego, Calif.), ChemDiv (San Diego, Calif.), and TimTec (Newark, Del.). MBX2319 was synthesized by Microbiotix, Inc. • Antibacterial Activity Assays. The minimal inhibitory concentration (MIC) of antibacterial agents and biocides were determined using the microbroth dilution method essentially as described in the CLSI protocol M7-A7 (CLSI: Method for dilution antimicrobial susceptibility testing for bacteria that grow aerobically; Approved standard-document M7-A7. In Clinical and Laboratory Standards Institute document M7-A7, Clinical and Laboratory Standards Institute, Wayne, Pa., (2006)), with the following exceptions. LB media was used instead of MHB. […] The final concentration of DMSO in each assay was 2%. […] MIC assays were performed in triplicate and the geometric mean was calculated. Checkerboard MIC assays using an EPI and an antibacterial agent were performed essentially as described (Pillai, et al.: Antimicrobial Combinations. In Antibiotics in Laboratory Medicine, ed. by V. Lorian, pp. 365-440, Lippincott Williams & Wilkins, Philadelphia, Pa., (2005)), with the same modifications used for the MIC assays described above. • Time-Kill Assays. Killing curve assays were performed essentially as described (Pillai, et al.: Antimicrobial Combinations. In Antibiotics in Laboratory Medicine, ed. by V. Lorian, pp. 365-440, Lippincott Williams & Wilkins, Philadelphia, Pa., (2005)). Exponential bacterial cultures grown in LB were diluted to a cell density of ˜1×10^7 in LB followed by addition of CIP and/or an EPI. Viability was monitored over 2-4 hours by making serial dilutions in saline and spotting 5 μl of each dilution onto the surface of an LB agar plate in triplicate. Colonies were counted after the plates were incubated at 37° C. for 16-18 hr, colony forming units (CFU) per ml were calculated, and the average and standard deviation for the three replicates was determined. For treatments that decreased CFU/ml below the limit of detection for the spot plating method, the 100 μl samples were diluted into 5 ml LB top agar, were poured onto LB agar plates, and incubated for 18 hr at 37° C. To calculate the fraction of the control for each sample, the average CFU/ml values for treated samples were divided by those from the same sample at 0 h (time=0). Each experiment was repeated at least three times, and a representative experiment is shown. • H33342 Accumulation Assay. The rate of accumulation of the fluorescent dye Hoechst 33342 (H33342), which is a substrate of a wide variety of bacterial efflux pumps (van den Berg van Saparoea, et al., Biochemistry, vol. 44, pp. 16931-16938, (2005)), can be used to estimate the activity of the major efflux pumps in E. coli and many other bacterial species. The H33342 accumulation assay was used to evaluate the effect of EPIs on the activity of the AcrAB-TolC efflux pump in several bacterial species essentially as described (Coldham, et al., J Antimicrob Chemother, vol. 65, pp. 1655-1663, (2010)). […]

[2] = tested on: diverse panel of E. coli strains; assay: Cumulative MICs (MIC50, MIC90) for levofloxacin and piperacillin ± 25 μM MBX2319; format: cell-based, Escherichia coli; conditions: E. coli strain panel
Source text: as §1, with “Exponential bacterial cultures grown in LB were diluted to a cell density of ˜1×10^7 in LB followed by addition of CIP and/or an EPI.” left out, “determined.” for “determined. For treatments that decreased CFU/ml below the limit of detection for the spot plating method, the 100 μl samples were diluted into 5 ml LB top agar, were poured onto LB agar plates, and incubated for 18 hr at 37° C. To calculate the fraction of the control for each sample, the average CFU/ml values for treated samples were divided by those from the same sample at 0 h (time=0). Each experiment was repeated at least three times, and a representative experiment is shown. • H33342 Accumulation Assay. The rate of accumulation of the fluorescent dye Hoechst 33342 (H33342), which is a substrate of a wide variety of bacterial efflux pumps (van den Berg van Saparoea, et al., Biochemistry, vol. 44, pp. 16931-16938, (2005)), can be used to estimate the activity of the major efflux pumps in E. coli and many other bacterial species. The H33342 accumulation assay was used to evaluate the effect of EPIs on the activity of the AcrAB-TolC efflux pump in several bacterial species essentially as described (Coldham, et al., J Antimicrob Chemother, vol. 65, pp. 1655-1663, (2010)).”

[3] = tested on: Escherichia coli AB1157 ΔemrB; assay: Checkerboard MIC assay (antibacterial agent + MBX2319); format: cell-based; conditions: EmrB-defective mutant; data not shown
Source text: as §1

[4] = tested on: Escherichia coli AB1157 ΔmacB; assay: as above; format: cell-based; conditions: MacB-defective mutant; data not shown
Source text: as §1

AcrAB-TolC efflux pump = AcrAB-TolC efflux pump (Escherichia coli, UniProt P31224); assay: H33342 accumulation assay; format: cell-based, Escherichia coli 287; parameters: endogenous in cells; host or cells: E. coli strains 285 and 287 (ciprofloxacin-resistant mutants of AB1157); conditions: hyper-efflux strain 287
Sequence of AcrAB-TolC efflux pump (P02930 23-493): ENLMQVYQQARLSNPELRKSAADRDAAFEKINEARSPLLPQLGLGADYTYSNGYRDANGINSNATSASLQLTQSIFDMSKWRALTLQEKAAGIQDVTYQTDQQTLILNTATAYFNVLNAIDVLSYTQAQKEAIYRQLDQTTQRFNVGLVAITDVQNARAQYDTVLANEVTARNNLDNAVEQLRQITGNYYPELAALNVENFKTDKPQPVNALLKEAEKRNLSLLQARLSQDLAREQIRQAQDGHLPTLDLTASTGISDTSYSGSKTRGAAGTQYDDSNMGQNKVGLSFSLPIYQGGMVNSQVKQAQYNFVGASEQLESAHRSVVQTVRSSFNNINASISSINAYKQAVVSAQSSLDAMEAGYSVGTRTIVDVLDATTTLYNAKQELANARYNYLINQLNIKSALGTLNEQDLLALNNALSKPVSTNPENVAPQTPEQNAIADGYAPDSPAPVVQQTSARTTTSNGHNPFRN
Sequence of AcrAB-TolC efflux pump (P0AE06 25-397, further chain): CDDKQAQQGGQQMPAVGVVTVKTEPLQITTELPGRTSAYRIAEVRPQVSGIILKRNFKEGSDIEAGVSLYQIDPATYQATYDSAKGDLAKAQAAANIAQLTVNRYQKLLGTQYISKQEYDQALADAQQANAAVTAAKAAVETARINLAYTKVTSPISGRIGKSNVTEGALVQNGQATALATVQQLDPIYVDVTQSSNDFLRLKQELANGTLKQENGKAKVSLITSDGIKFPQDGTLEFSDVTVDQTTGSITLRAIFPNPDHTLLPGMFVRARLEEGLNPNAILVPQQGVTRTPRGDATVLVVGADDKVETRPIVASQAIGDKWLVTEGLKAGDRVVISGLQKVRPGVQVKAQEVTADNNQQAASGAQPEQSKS
Sequence of AcrAB-TolC efflux pump (P31224 whole entry): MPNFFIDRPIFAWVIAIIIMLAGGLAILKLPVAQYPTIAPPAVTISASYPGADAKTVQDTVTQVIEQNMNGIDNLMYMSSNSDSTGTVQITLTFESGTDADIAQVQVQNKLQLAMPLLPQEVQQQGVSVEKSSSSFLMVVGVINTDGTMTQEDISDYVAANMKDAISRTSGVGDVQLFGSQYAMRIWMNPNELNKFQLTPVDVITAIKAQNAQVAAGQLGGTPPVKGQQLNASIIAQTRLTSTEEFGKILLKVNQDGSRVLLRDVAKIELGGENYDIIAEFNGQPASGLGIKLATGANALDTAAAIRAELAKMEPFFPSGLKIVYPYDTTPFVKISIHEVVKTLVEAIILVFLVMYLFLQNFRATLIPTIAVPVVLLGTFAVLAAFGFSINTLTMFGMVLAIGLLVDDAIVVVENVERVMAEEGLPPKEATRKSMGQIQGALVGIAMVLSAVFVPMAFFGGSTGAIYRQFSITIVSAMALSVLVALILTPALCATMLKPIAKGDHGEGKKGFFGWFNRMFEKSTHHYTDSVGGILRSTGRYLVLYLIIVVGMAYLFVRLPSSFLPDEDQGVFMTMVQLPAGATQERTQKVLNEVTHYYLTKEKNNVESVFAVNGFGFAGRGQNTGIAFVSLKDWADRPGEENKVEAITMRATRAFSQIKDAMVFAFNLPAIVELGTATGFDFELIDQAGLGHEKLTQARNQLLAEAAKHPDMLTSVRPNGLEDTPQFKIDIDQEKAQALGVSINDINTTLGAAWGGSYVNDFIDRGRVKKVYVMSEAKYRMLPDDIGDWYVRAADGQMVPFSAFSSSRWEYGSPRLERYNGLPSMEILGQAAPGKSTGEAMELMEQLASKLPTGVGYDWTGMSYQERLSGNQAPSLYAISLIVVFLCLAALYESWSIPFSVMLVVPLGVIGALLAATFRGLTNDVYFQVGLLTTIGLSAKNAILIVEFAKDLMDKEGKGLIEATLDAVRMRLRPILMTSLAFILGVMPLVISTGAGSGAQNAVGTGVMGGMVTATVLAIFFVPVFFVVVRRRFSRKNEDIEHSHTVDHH

| Compound | MIC ([1]; Escherichia coli, read-out: MICs (μg/ml) ΔacrB None) [µg/mL] | MIC Ratio ΔacrB ([1]; MIC WT/MIC ΔacrB) | decrease of MIC50 for LEV [2] | decrease of MIC90 for LEV [2] | effect on MIC50 for PIP [2] | effect on MIC90 for PIP [2] | MIC shifts by MBX2319 [3] | MIC shifts by MBX2319 [4] | H33342 accumulation (AcrAB-TolC efflux pump) |
| --- | --- | --- | --- | --- | --- | --- | --- | --- | --- |
| CCN1CCN(C(=O)N[C@@H](C(=O)N[C@@H]2C(=O)N3[C@@H]2SC(C)(C)[C@@H]3C(=O)O)c2ccccc2)C(=O)C1=O [Piperacillin, piperacillin] | 0.25 | 16 | – | – | – | – | – | – | – |
| CC1(C)Cc2c(C#N)c(SCCc3ccccc3)nc(N3CCOCC3)c2CO1 [MBX2319] | – | – | four fold | four fold | did not have a significant effect | did not have a significant effect | MIC shifts similar to WT | MIC shifts similar to WT | increased H33342 accumulation |
